The source made the active and inactive calls. No cut-off for these calls is given here.
Experiments:
[1] = tested on: HUVEC; assay: Antiproliferative activity against HUVEC as measured by [3H]thymidine incorporation; format: functional, cell-based; details: Homo sapiens
[2] = tested on: Jurkat; assay: Antiproliferative activity against Jurkat T cells as measured by [3H]thymidine incorporation; format: functional, cell-based; details: Homo sapiens
[3] = tested on: HUVEC; assay: Antiproliferative activity against HUVEC in presence of 20 uM guanine as measured by [3H]thymidine incorporation; format: functional, cell-based; details: Homo sapiens
[4] = tested on: Jurkat; assay: Antiproliferative activity against Jurkat T cells in presence of 20 uM guanine as measured by [3H]thymidine incorporation; format: functional, cell-based; details: Homo sapiens
[5] = tested on: HUVEC; assay: Cell cycle arrest at G1 phase in HUVEC at 1 uM; format: functional; details: Homo sapiens
[6] = tested on: HUVEC; assay: Cell cycle arrest at S phase in HUVEC at 1 uM; format: functional; details: Homo sapiens
[7] = tested on: HUVEC; assay: Cell cycle arrest at G2/M phase in HUVEC at 1 uM; format: functional; details: Homo sapiens
[8] = tested on: HUVEC; assay: Cell cycle arrest at G1 phase in HUVEC at 1 uM in presence of 50 uM guanosine; format: functional, Homo sapiens
[9] = tested on: HUVEC; assay: Cell cycle arrest at S phase in HUVEC at 1 uM in presence of 50 uM guanosine; format: functional, Homo sapiens
[10] = tested on: HUVEC; assay: Cell cycle arrest at G2/M phase in HUVEC at 1 uM in presence of 50 uM guanosine; format: functional, Homo sapiens
[11] = tested on: Mus musculus; assay: Antiangiogenic activity in mouse at 60 mg/kg/day, sc; format: functional; details: route subcutaneous
[12] = species on record: Mus musculus; assay: Inhibition of tumor-induced angiogenesis in RENCA mouse model; format: functional, organism-based

With `COc1c(C)c2c(c(O)c1C/C=C(\C)CCC(=O)O)C(=O)OC2` [MYCOPHENOLIC ACID] the IC50 [1] was 99.2 nM, the IC50 [2] was 128 nM and the Activity [3] was “inactive”. For the same compound, the Activity [4] was “inactive”, the inhibition at 1 µM [5] was 81% and the inhibition at 1 µM [6] was 6.5%. It also gave an inhibition at 1 µM [7] of 12.4%, an Inhibition [8] of 71% and an Inhibition [9] of 11.8%. For the same compound, the Inhibition [10] was 17%, the inhibition in vivo at 60 mg/kg/day [11] was 69% and the inhibition [12] was “Dose-dependent effect”.
